The values that follow come from PubChem BioAssay AID179 (DTP/NCI, 2004).

“And” between values parts separate entries of the source, which are not always exact repeats. Equal entries are not always repeated. The source made the active and inactive calls.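 How the source made its calls: active means compounds giving half or more protection of infected cells from virus-caused growth loss, again on retest; inactive means the rest.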

This experiment relates to CEM cells HIV-1 protection, formazan growth assay. In words: NCI AIDS Antiviral Assay. To be noted: for IC50: measured here: growth of uninfected CEM cells. Put shortly: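 Human CEM cells, uninfected and HIV-1-infected, exposed to five drug concentrations; growth measured by soluble formazan assay and scored as percent protection from infection, with protecting compounds retested.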

By EC50 is commonly meant the concentration that produces a half-maximal response. The IC50 is the point on the concentration scale where inhibition reaches its midpoint. Read a low IC50 as greater potency in that assay. In the case of `CCOC(=O)C1(C(N)=O)C(=O)c2ccncc2C1=O` (centres undefined), the EC50 was > 200 µM and the IC50 was > 200 µM.
Turning to `CC[n+]1cnc(N)c2c(-c3ccc(Cl)cc3)cn(-c3ccc(C)cc3)c21`, the EC50 was > 200 µM and the IC50 is 12.3 µM.
Take `CC(C)(C)[Si](C)(C)OC[C@H]1O[C@@H](n2ccc(=O)[nH]c2=O)[C@H](O[Si](C)(C)C(C)(C)C)[C@]1(O)[C@H](Cl)C(N)=O`: the EC50 is > 200 µM and the half-inhibitory concentration (IC50) was 3.72 µM.
For `O=C(/C=C/c1ccc(O)c(O)c1)c1cc(O)cc(O)c1`, the EC50 was > 200 µM and the IC50 is 15.1 µM.
Consider `CCN(CC)C(=O)Cn1c(C)cc2ccccc21`, for which the EC50 was > 200 µM and the IC50 is > 200 µM.
Turning to `COC(=O)CC(=O)/C(=C/C(C/C=C(\C(=O)CC(=O)OC)C(=O)OC)OC)C(=O)OC` (centres undefined), the EC50 was > 200 µM and the IC50 is > 200 µM.
On to `O=C1C2C3CCC(O3)C2C(=O)N1N1C(=O)C2C3CCC(O3)C2C1=O` (centres undefined), for which the EC50 is > 200 µM and the half-inhibitory concentration (IC50) was determined as 43.7 µM.
On the same counts, the results for `Cc1cn(C2CC(Sc3ccccn3)C(CO)O2)c(=O)[nH]c1=O` (centres undefined) are > 372 µM and 316 µM.
As to `c1ccc2cc(C3NCCc4[nH]cnc43)ccc2c1` (centres undefined), the EC50 is > 28.8 µM and the IC50 is > 28.8 µM.
With `O=C1NC2c3c(I)sc(I)c3C(=O)C2O1` (centres undefined), the EC50 was 0.603 µM and the half-inhibitory concentration (IC50) came out at 1.12 µM.
In the same order, the values of `CC(C)CC(NC(=O)OCc1ccccc1)C(=O)NCCCCC(N)C(=O)NC(CCCCNC(=O)C(CC(C)C)NC(=O)OCc1ccccc1)C(=O)NC(CCCCNC(=O)C(CC(C)C)NC(=O)OCc1ccccc1)C(=O)NC(CCCCNC(=O)C(CC(C)C)NC(=O)OCc1ccccc1)C(=O)NC(CCCCNC(=O)C(CC(C)C)NC(=O)OCc1ccccc1)C(=O)NC(CCCCNC(=O)C(CC(C)C)NC(=O)OCc1ccccc1)C(=O)O` (centres undefined) are > 100 µM and > 100 µM.
In the same order, the values of `CC(=O)Nc1nnc2c3ccccc3n(C(C)=O)c2n1` are > 200 µM and 3.55 µM.
On the same counts, the results for `O=C1C2=C(c3ccccc31)C(c1ccc(Cl)cc1)N1C(=O)CCSC1=N2` (centres undefined) are > 49 µM and > 49 µM.
For `COC(=O)CSc1n[nH]c(-c2ccc(O)c([N+](=O)[O-])c2)n1`, the EC50 was > 115 µM and the half-inhibitory concentration (IC50) is > 115 µM.
Take `Cc1cc([N+](=O)[O-])c(C)c2c1[nH]c1ccc(O)cc12`: the EC50 is > 38.9 µM and the IC50 is 6.92 µM.
In the same order, the values of `O=C(c1ccccc1)c1cc(N=Nc2ccc(/C=C/c3ccc(N=Nc4cc(C(=O)c5ccccc5)c5cccnc5c4O)cc3S(=O)(=O)O)c(S(=O)(=O)O)c2)c(O)c2ncccc12` are > 38.9 µM and > 38.9 µM.
As for `c1cc2c(s1)-c1sccc1C21OCCO1`, the EC50 was > 200 µM and the 50% inhibitory concentration (IC50) is 162 µM.
With `COC(=O)c1sc(=NC(=S)N2CCCCC2)sc1C(=O)OC`, the outcome was inactive.
In the case of `CN(C)c1ccc(/C=C(\C#N)c2cccc(F)c2)cc1`, the EC50 is > 2 µM and the IC50 worked out at 0.141 µM.
`N=C1C=CC(=C(c2ccc(N)cc2)c2ccc(N)cc2)C=C1`: the outcome was inactive.
For `COc1ccc(-c2c(C(C)=O)c(-c3ccccc3)n(C3OC(CO)C(O)C(O)C3O)c(=S)c2C#N)cc1` (centres undefined), the EC50 is > 200 µM and the IC50 is > 200 µM.
`COc1ccc(Nc2nc3c(s2)c(C)c(O)c2ccccc23)cc1`: the concentration giving a half-maximal response (EC50) was > 2.88 µM and the IC50 is 0.851 µM.
In the same order, the values of `CC(C)=C1C2CCC1C1CSCC21` (centres undefined) are > 115 µM and > 115 µM.
On the same counts, the results for `CCCCCCC(C)S(=O)(=O)O` (centres undefined) are > 200 µM and > 200 µM.
On to `COC(=O)c1cc2cc(O)c(O)cc2cn1`, for which the EC50 is > 200 µM; the IC50 is > 8.32 µM and 12 µM.
For the compound `CCOC(=O)/C(=C\c1cccc(Cl)c1)C(C)=O`, the EC50 was > 141 µM and the IC50 is 57.5 µM.
On the same counts, the results for `CP1CCC(O)(c2ccccc2)CC1` (centres undefined) are > 200 µM and > 200 µM.
In the same order, the values of `CCOC(=O)Oc1cc2c(c(OC)c1OC)-c1ccc(OC)c(=O)cc1C(NC(C)=O)CC2` (centres undefined) are > 2 µM and 0.00525 µM.
In the case of `CC(C)N(/C(F)=N\C(=O)Nc1ccccc1C(F)(F)F)C(C)C`, the EC50 was > 200 µM and the half-inhibitory concentration (IC50) came to 38.9 µM.
With `O=C(NC(=O)c1ccccc1[N+](=O)[O-])Nc1ccc(Oc2ncc(Cl)cn2)c([N+](=O)[O-])c1`, the outcome was inactive.
Turning to `O=S(=O)(O)c1cc(N=Nc2cc(S(=O)(=O)O)c3cccnc3c2O)ccc1/C=C/c1ccc(N=Nc2cc(S(=O)(=O)O)c3cccnc3c2O)cc1S(=O)(=O)O.[Na+].[Zn+2]`, the EC50 was 1.95 µM and the IC50 turned out to be 14.1 µM.
In the same order, the values of `COc1cc2c(cc1OC)C13CC(=O)N(C(C)=O)N1CCCN3C2=O` (centres undefined) are > 145 µM and > 145 µM.
Consider `CS(=O)(=O)Nc1ccc2c(c1)N(S(C)(=O)=O)CC2CCl` (centres undefined), for which the EC50 is > 200 µM and the 50% inhibitory concentration (IC50) was found to be 166 µM.
As to `S=C1SCN2CCN3CSC(=S)N(CCN1C2)C3`, the EC50 was > 81.3 µM and the 50% inhibitory concentration (IC50) was > 81.3 µM.
As for `COC(=O)C(C)Sc1nc2cc(Cl)ccc2s1` (centres undefined), the EC50 is > 200 µM and the concentration for half-maximal inhibition (IC50) was determined as 174 µM.
`c1ccc(CCN(Cc2nc3ccccc3[nH]2)Cc2nc3ccccc3[nH]2)cc1`: the EC50 was > 200 µM and the half-inhibitory concentration (IC50) was determined as 10.5 µM.
With `O=c1n(CCCN2CCN(c3cccc(Cl)c3)CC2)nc2n1-c1ccc3ccccc3c1SC2`, the EC50 is > 200 µM and the IC50 is > 200 µM.
For the compound `Cc1ccc(C)c(COCCOCn2cc(N3CCOCC3)c(=O)[nH]c2=O)c1`, the EC50 is > 200 µM and the half-maximal inhibitory concentration (IC50) is > 200 µM.
Regarding `N#Cc1nc(NC(=O)c2ccccc2)sc1N`, the EC50 is > 200 µM and the IC50 is 15.1 µM.
On to `CCOCC(=O)N[C@H]1CCc2cc(OC)c(OC)c(OC)c2-c2ccc(OC)c(=O)cc21`, for which the EC50 is > 2 µM and the concentration for half-maximal inhibition (IC50) stood at 0.00347 µM.
On to `Cc1nc2ccccc2c2c(N)cccc12`, for which the EC50 is > 200 µM and the IC50 is > 200 µM.
For the compound `O=c1c(NCc2ccccc2)c(C2(c3ccccc3F)SCCCS2)c1=O`, the EC50 was > 200 µM and the IC50 is 151 µM.
In the same order, the values of `Cc1ccccc1SCc1nc2ccccc2c(C)[n+]1[O-]` are 21.9 µM and 102 µM.
On the same counts, the results for `NC(=O)C12CC3CC(CC(F)(C3)C1)C2` are > 1260 µM and > 1260 µM.
In the same order, the values of `CC12c3ccccc3C(OC=O)(c3ccccc31)C1(C)c3ccccc3C2(OC=O)c2ccccc21` are > 3.09 µM and > 3.09 µM.
Regarding `CCOC(=O)/C(=C\c1ccc(C#N)cc1)[Se]c1ccccc1`, the EC50 is > 52.5 µM and the IC50 was > 52.5 µM.
As for `COc1ccc(/C=C2\CCCCC2=O)cc1`, the result was inactive.
Take `CC(=O)Nc1cc2cc(NS(=O)(=O)c3ccc(Cl)c(Cl)c3)ccc2oc1=O`: the EC50 was > 47.9 µM and the IC50 is > 47.9 µM.
`CCOC(=O)NC(=O)c1cn(CCN2CCN(C(=O)CCCCCCCCCCNc3ncnc4nc[nH]c34)CC2)c(=O)[nH]c1=O`: the outcome was inactive.
Consider `CN(C)CCC(O)(Cc1ccccc1)c1cccc(Cl)c1` (centres undefined), for which the EC50 was > 200 µM and the IC50 was 87.1 µM.
In the case of `CCOC(=O)c1nc2cc(C(F)(F)F)ccc2nc1Oc1ccc(C(=O)OC)cc1`, the EC50 is > 200 µM and the half-maximal inhibitory concentration (IC50) came out at 95.5 µM.
On the same counts, the results for `Cc1cccc(N=C2NC(=O)C(CC(=O)Nc3ccccc3Cl)S2)c1` (centres undefined) are > 10 µM and > 10 µM.
As to `C[n+]1[se]c2ccccc2c1Cl`, the EC50 was > 186 µM and the 50% inhibitory concentration (IC50) turned out to be 7.24 µM.
On the same counts, the results for `O=C(/C=C/c1ccccc1)Oc1ccc(C(=O)/C=C/c2ccc(Cl)cc2)cc1` are > 100 µM and 44.7 µM.
With `O=C(CC(=O)N1N=C(n2ccc3ccccc32)CC1c1ccccc1)Nc1cccc(Cl)c1` (centres undefined), the result was inactive.
In the case of `O=C(CCCn1ccnc1[N+](=O)[O-])NCCn1cnc([N+](=O)[O-])c1`, the EC50 was > 200 µM and the half-inhibitory concentration (IC50) was > 200 µM.
In the case of `Cc1cccc2c3c(ccc12)C(=O)OC3=O`, the outcome was inactive.
Take `CC(=O)Nc1ccc(S(=O)(=O)NCCSSCCNS(=O)(=O)c2ccc(NC(C)=O)cc2)cc1`: the EC50 is > 200 µM and the concentration for half-maximal inhibition (IC50) was > 200 µM.
As to `COc1ccc(S(=O)(=O)N[C@H](C(=O)O)c2ccccc2)cc1`, the outcome was inactive.
For the compound `NC(N)=NCCCC(NC(=O)OCCCCCn1ccc(N)nc1=O)C(=O)O` (centres undefined), the EC50 is > 200 µM and the IC50 was > 200 µM.
As to `CN[C@@H](C)[C@H](NC)c1ccccc1`, the outcome was inactive.
In the case of `Cc1ccc(C)c(NC(=O)C(=O)CC(=O)C2CCOC2=O)c1` (centres undefined), the outcome was inactive.
For the compound `OCC(O)C1OC(c2ccco2)OC(CO)C1O` (centres undefined), the EC50 is > 200 µM and the IC50 is > 200 µM.
In the case of `Oc1cc2c(cc1O)C1c3ccc(O)c(O)c3OCC1(O)C2` (centres undefined), the EC50 is > 200 µM and the half-inhibitory concentration (IC50) is 9.55 µM.
In the same order, the values of `N/N=C1/C2CN3CCN(C2)CC1(c1ccc([N+](=O)[O-])cc1)C3` are > 200 µM and > 200 µM.
In the same order, the values of `N#CCN(Cc1ccccc1)[C@H]1CCC[C@]1(O)/C=C/c1ccc2c(c1)OCO2` are > 200 µM and 32.4 µM.
As to `CC/C(CC(=O)CCC(=O)Nc1ccc(C)c(C)c1)=N\NC(=O)C(N)=O`, the result was inactive.
Still for that read-out and setting: the entry for `ClCC[N+]12CC[N+](CCCl)(CC1)C2` is “inactive”.
Consider `CCOC(=O)c1cnc2oc(-c3ccc(OC)cc3)nn2c1=O`, for which the result was inactive.
Take `CCN(CC)C(=O)COc1cc2c(O)c3c(O)c(C)c4c(c13)C(=O)C(C)(OC=CC(OC)C(C)C(OC(C)=O)C(C)C(O)C(C)C(O)C(C)C=CC=C(C)C(=O)N2)O4` (centres undefined): the EC50 is > 155 µM and the half-maximal inhibitory concentration (IC50) is > 100 µM.
In the same order, the values of `CCOc1ccccc1NC(=O)CCC(=O)OC` are > 1000 µM and > 1000 µM.
